ChEMBL document CHEMBL1135389, “7-Substituted 5-amino-2-(2-furyl)pyrazolo[4,3-e]-1,2,4-triazolo[1,5-c]pyrimidines as A2A adenosine receptor antagonists: a study on the importance of modifications at the side chain on the activity and solubility” (J Med Chem, 2002)

Tests used:
Adenosine receptor A3 = target: T1, Adenosine receptor A3 (Homo sapiens, UniProt P0DMS8); assay: Displacement of specific [3H]MRE3008-F20 binding at human adenosine A3 receptor expressed in CHO cells.; format: cell-based
T1 sequence (P0DMS8 whole entry): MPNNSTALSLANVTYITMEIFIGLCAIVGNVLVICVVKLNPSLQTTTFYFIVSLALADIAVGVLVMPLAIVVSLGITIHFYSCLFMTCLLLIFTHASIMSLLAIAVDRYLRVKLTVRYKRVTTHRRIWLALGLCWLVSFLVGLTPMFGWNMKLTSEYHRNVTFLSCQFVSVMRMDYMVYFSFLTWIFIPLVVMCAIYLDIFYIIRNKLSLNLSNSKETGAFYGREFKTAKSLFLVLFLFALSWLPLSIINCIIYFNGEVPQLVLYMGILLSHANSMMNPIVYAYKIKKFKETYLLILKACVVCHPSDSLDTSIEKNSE

Adenosine receptor A2b [1] = target: T2, Adenosine receptor A2b (Homo sapiens, UniProt P29275); assay: biochemical
T2 sequence (P29275 whole entry): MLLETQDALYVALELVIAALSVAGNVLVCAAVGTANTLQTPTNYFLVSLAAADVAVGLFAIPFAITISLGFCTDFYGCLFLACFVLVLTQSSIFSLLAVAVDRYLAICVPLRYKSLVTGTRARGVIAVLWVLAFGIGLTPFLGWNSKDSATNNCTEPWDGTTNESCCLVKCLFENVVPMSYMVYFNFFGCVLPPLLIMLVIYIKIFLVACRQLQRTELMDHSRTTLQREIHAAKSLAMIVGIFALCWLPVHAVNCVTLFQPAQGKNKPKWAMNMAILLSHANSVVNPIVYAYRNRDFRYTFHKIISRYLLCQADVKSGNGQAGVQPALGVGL
Description: (§1) Displacement of specific [3H]DPCPX binding at human adenosine A2B receptor expressed in HEK293 cells.

Adenosine receptor A1 [2] = target: T3, Adenosine receptor A1 (Homo sapiens, UniProt P30542); assay: biochemical
T3 sequence (P30542 whole entry): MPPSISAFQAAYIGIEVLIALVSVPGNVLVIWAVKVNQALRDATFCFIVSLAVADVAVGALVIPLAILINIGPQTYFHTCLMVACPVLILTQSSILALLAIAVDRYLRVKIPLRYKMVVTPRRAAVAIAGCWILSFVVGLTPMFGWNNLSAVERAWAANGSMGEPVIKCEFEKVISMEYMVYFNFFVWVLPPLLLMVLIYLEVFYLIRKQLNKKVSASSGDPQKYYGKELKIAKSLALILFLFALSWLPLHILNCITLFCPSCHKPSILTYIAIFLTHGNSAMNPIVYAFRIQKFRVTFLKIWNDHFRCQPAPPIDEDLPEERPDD
Description: Displacement of specific [3H]DPCPX binding at human Adenosine A1 receptor expressed in CHO cells.

Adenosine receptor A2a [3] = target: T4, Adenosine receptor A2a (Homo sapiens, UniProt P29274); assay: biochemical
Adenosine receptor A1 [4] = target: T3, Adenosine receptor A1; assay: Displacement of [3H]DPCPX from human Adenosine A1 receptor expressed in CHO cells; ranges from 3420-3788; format: cell-based
Adenosine receptor A2a [5] = target: T4, Adenosine receptor A2a; assay: Displacement of [3H]-SCH- 58261 binding at human Adenosine A2A receptor expressed in HEK293 cells; ranges from 49-72; format: cell-based
Adenosine receptor A1 [6] = target: T3, Adenosine receptor A1; assay: Displacement of [3H]-DPCPX from human Adenosine A1 receptor expressed in CHO cells; ranges from 2153-2891; format: cell-based
Adenosine receptor A2a [7] = target: T4, Adenosine receptor A2a; assay: Displacement of [3H]-SCH- 58261 binding at human Adenosine A2A receptor expressed in HEK293 cells; ranges from 0.69-0.92; format: cell-based
Adenosine receptor A1 [8] = target: T3, Adenosine receptor A1; assay: Displacement of [3H]DPCPX binding at human Adenosine A1 receptor expressed in CHO cells; ranges from 8783-9911; format: cell-based
Adenosine receptor A2a [9] = target: T4, Adenosine receptor A2a; assay: Displacement of [3H]-SCH- 58261 binding at human Adenosine A2A receptor expressed in HEK293 cells; ranges from 48.9-52.4; format: cell-based
Adenosine receptor A1 [10] = target: T3, Adenosine receptor A1; assay: Displacement of [3H]DPCPX binding at human Adenosine A1 receptor expressed in CHO cells; ranges from 5697-7171; format: cell-based
Adenosine receptor A2a [11] = target: T4, Adenosine receptor A2a; assay: Displacement of [3H]-SCH- 58261 binding at human Adenosine A2A receptor expressed in HEK293 cells; ranges from 66-85; format: cell-based
Adenosine receptor A1 [12] = target: T3, Adenosine receptor A1; assay: Displacement of [3H]-DPCPX from human Adenosine A1 receptor expressed in CHO cells; ranges from 107-181; format: cell-based
Adenosine receptor A2a [13] = target: T4, Adenosine receptor A2a; assay: Displacement of [3H]-SCH- 58261 binding at human Adenosine A2A receptor expressed in HEK293 cells; ranges from 129-152; format: cell-based
Adenosine receptor A1 [14] = target: T3, Adenosine receptor A1; assay: Displacement of [3H]DPCPX from human Adenosine A1 receptor expressed in CHO cells; ranges from 9038-9773; format: cell-based
Adenosine receptor A2a [15] = target: T4, Adenosine receptor A2a; assay: Displacement of [3H]-SCH- 58261 binding at human Adenosine A2A receptor expressed in HEK293 cells; ranges from 98-144; format: cell-based
Adenosine receptor A2b [16] = target: T2, Adenosine receptor A2b; conditions: hek293
Description: as §1

Adenosine receptor A1 [17] = target: T3, Adenosine receptor A1; assay: Displacement of [3H]DPCPX from human Adenosine A1 receptor expressed in CHO cells; ranges from 1460-2201; format: cell-based
Adenosine receptor A2a [18] = target: T4, Adenosine receptor A2a; assay: Displacement of [3H]-SCH- 58261 from human Adenosine A2A receptor expressed in HEK293 cells; ranges from 4.95-6.08; format: cell-based
Adenosine receptor A1 [19] = target: T3, Adenosine receptor A1; assay: Displacement of [3H]-DPCPX binding at human Adenosine A1 receptor expressed in CHO cells; ranges from 9257-9817; format: cell-based
Adenosine receptor A1 [20] = target: T3, Adenosine receptor A1; assay: Displacement of [3H]DPCPX binding at human Adenosine A1 receptor expressed in CHO cells; ranges from 363-514; format: cell-based
Adenosine receptor A2a [21] = target: T4, Adenosine receptor A2a; assay: biochemical; remark: listed apart in the source
Adenosine receptor A1 [22] = target: T3, Adenosine receptor A1; assay: Displacement of [3H]DPCPX from human Adenosine A1 receptor expressed in CHO cells; ranges from 324-420; format: cell-based
Adenosine receptor A2a [23] = target: T4, Adenosine receptor A2a; assay: biochemical; remark: listed apart in the source

T4 sequence (P29274 whole entry): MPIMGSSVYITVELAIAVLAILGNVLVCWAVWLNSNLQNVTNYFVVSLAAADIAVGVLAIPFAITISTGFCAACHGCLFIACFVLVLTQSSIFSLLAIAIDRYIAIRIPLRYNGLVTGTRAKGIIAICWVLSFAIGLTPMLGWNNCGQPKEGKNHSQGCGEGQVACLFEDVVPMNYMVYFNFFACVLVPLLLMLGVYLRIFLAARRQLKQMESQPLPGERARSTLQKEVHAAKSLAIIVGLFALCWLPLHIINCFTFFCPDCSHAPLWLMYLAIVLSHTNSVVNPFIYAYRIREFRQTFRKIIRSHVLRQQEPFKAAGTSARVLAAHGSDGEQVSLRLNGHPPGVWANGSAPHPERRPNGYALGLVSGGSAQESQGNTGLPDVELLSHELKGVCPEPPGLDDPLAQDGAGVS

Ki (Adenosine receptor A3)	Ki (Adenosine receptor A2b [1])	Ki (Adenosine receptor A1 [2])	Ki (Adenosine receptor A2a [3])	SMILES	other results
> 10000 nM	> 10000 nM	179 nM	0.18 nM	N/C(=N\O)c1ccc(CCn2ncc3c2nc(N)n2nc(-c4ccco4)nc32)cc1	–
> 10000 nM	> 10000 nM	6500 nM	86 nM	N#Cc1ccc(CCCn2ncc3c2nc(N)n2nc(-c4ccco4)nc32)cc1	–
> 10000 nM	> 10000 nM	4200 nM	0.43 nM	CCOC(=O)COc1ccc(CCn2ncc3c2nc(N)n2nc(-c4ccco4)nc32)cc1	–
> 10000 nM	> 10000 nM	1030 nM	1 nM	Nc1nc2c(cnn2CCCc2ccc([N+](=O)[O-])cc2)c2nc(-c3ccco3)nn12	–
> 10000 nM	> 10000 nM	576 nM	0.13 nM	Nc1ccc(CCn2ncc3c2nc(N)n2nc(-c4ccco4)nc32)cc1	–
> 10000 nM	> 10000 nM	60 nM	6 nM	NCc1ccc(CCCn2ncc3c2nc(N)n2nc(-c4ccco4)nc32)cc1	–
> 10000 nM	> 10000 nM	–	–	Nc1nc2c(cnn2CCCc2ccc3c(c2)O[C@H](C(=O)O)O3)c2nc(-c3ccco3)nn12	Ki (Adenosine receptor A1 [4]): 3600 nM; Ki (Adenosine receptor A2a [5]): 59 nM
> 10000 nM	> 10000 nM	419 nM	4.8 nM	CC(=O)Nc1ccc(CCn2ncc3c2nc(N)n2nc(-c4ccco4)nc32)cc1	–
> 10000 nM	> 10000 nM	–	–	Nc1nc2c(cnn2CCc2ccc(S(=O)(=O)N(CCO)CCO)cc2)c2nc(-c3ccco3)nn12	Ki (Adenosine receptor A1 [6]): 2500 nM; Ki (Adenosine receptor A2a [7]): 0.8 nM
> 10000 nM	> 10000 nM	60 nM	6 nM	N/C(=N/O)c1ccc(CCCn2ncc3c2nc(N)n2nc(-c4ccco4)nc32)cc1	–
> 10000 nM	> 10000 nM	–	–	Nc1nc2c(cnn2CCc2ccc(S(=O)(=O)NCC(=O)O)cc2)c2nc(-c3ccco3)nn12	Ki (Adenosine receptor A1 [8]): 9330 nM; Ki (Adenosine receptor A2a [9]): 50 nM
> 10000 nM	> 10000 nM	190 nM	100 nM	Nc1nc2c(cnn2CCc2ccc(S(=O)(=O)O)cc2)c2nc(-c3ccco3)nn12	–
> 10000 nM	> 10000 nM	–	–	Nc1nc2c(cnn2CCCc2cc3c(cc2S(=O)(=O)O)OCO3)c2nc(-c3ccco3)nn12	Ki (Adenosine receptor A1 [10]): 6390 nM; Ki (Adenosine receptor A2a [11]): 75 nM
> 10000 nM	> 10000 nM	2630 nM	1.31 nM	Nc1nc2c(cnn2CCc2ccc(S(N)(=O)=O)cc2)c2nc(-c3ccco3)nn12	–
> 10000 nM	> 10000 nM	–	–	Nc1nc2c(cnn2CCCc2ccc(S(=O)(=O)O)cc2)c2nc(-c3ccco3)nn12	Ki (Adenosine receptor A1 [12]): 139 nM; Ki (Adenosine receptor A2a [13]): 140 nM
> 10000 nM	> 10000 nM	558 nM	1.1 nM	Nc1nc2c(cnn2CCCc2ccc(N(CCO)CCO)cc2)c2nc(-c3ccco3)nn12	–
–	–	–	–	Nc1nc2c(cnn2CCCc2ccc3c(c2)OC(C(=O)O)(C(=O)O)O3)c2nc(-c3ccco3)nn12 [listing 1 of 2 here]	Ki (Adenosine receptor A1 [14]): 9400 nM; Ki (Adenosine receptor A2a [15]): 120 nM; Ki (Adenosine receptor A3; cho): > 10000 nM; Ki (Adenosine receptor A2b [16]): > 10000 nM
> 10000 nM	> 10000 nM	–	–	CCOC(=O)[C@@H]1Oc2ccc(CCCn3ncc4c3nc(N)n3nc(-c5ccco5)nc43)cc2O1	Ki (Adenosine receptor A1 [17]): 1790 nM; Ki (Adenosine receptor A2a [18]): 5.48 nM
> 10000 nM	> 10000 nM	4960 nM	4.4 nM	Nc1nc2c(cnn2CCCc2ccc(C(=O)O)cc2)c2nc(-c3ccco3)nn12	–
> 10000 nM	> 10000 nM	75 nM	55 nM	N=C(N)c1ccc(CCCn2ncc3c2nc(N)n2nc(-c4ccco4)nc32)cc1	–
> 10000 nM	> 10000 nM	–	–	Nc1nc2c(cnn2CCCc2ccc3c(c2)OC(C(=O)O)(C(=O)O)O3)c2nc(-c3ccco3)nn12 [listing 2 of 2 here]	Ki (Adenosine receptor A1 [19]): 9530 nM; Ki (Adenosine receptor A2a [15]): 120 nM
> 10000 nM	> 10000 nM	2160 nM	0.22 nM	Nc1ccc(CCCn2ncc3c2nc(N)n2nc(-c4ccco4)nc32)cc1	–
> 10000 nM	> 10000 nM	4490 nM	4 nM	CCOC(=O)c1ccc(CCCn2ncc3c2nc(N)n2nc(-c4ccco4)nc32)cc1	–
–	> 10000 nM	350 nM	1.2 nM	Nc1nc2c(cnn2CCCc2ccccc2)c2nc(-c3ccco3)nn12 [SCH-63390]	–

SMILES	Ki (Adenosine receptor A3)	Ki (Adenosine receptor A2b [1])	Ki (Adenosine receptor A1 [2])	Ki (Adenosine receptor A2a [3])	other results
Nc1nc2c(cnn2CCc2ccc(N(CCO)CCO)cc2)c2nc(-c3ccco3)nn12	> 10000 nM	> 10000 nM	123 nM	0.12 nM	–
Nc1nc2c(cnn2CCc2ccc(S(=O)(=O)N(CCCl)CCCl)cc2)c2nc(-c3ccco3)nn12	> 10000 nM	> 10000 nM	5300 nM	0.59 nM	–
Nc1nc2c(cnn2CCCc2ccc3c(c2)OC(CO)(CO)O3)c2nc(-c3ccco3)nn12	> 10000 nM	> 10000 nM	–	–	Ki (Adenosine receptor A1 [20]): 432 nM; Ki (Adenosine receptor A2a [21]): 0.19 nM
CN1CCN(S(=O)(=O)c2ccc(CCn3ncc4c3nc(N)n3nc(-c5ccco5)nc43)cc2)CC1	> 10000 nM	> 10000 nM	–	–	Ki (Adenosine receptor A1 [22]): 369 nM; Ki (Adenosine receptor A2a [23]): 3.8 nM
